Article PMC9501633, “Synthesis, Characterisation and Mechanism of Action of Anticancer 3-Fluoroazetidin-2-ones” (Pharmaceuticals, 2022)

Tests used:
[1] = test system: OVCAR-4; assay: NCI 60 cell line screen, Ovarian; format: cell-based, human
[2] = test system: SK-MEL-5; assay: NCI 60 cell line screen, Melanoma; format: cell-based, human
[3] = test system: ACHN; assay: NCI 60 cell line screen, Renal; format: cell-based, human; conditions: one dose 10 µM
[4] = test system: K-562; assay: NCI 60 cell line screen, Leukaemia; format: cell-based, human
[5] = test system: HS 578T; assay: NCI 60 cell line screen, Breast; format: cell-based, human
[6] = test system: OVCAR-5; assay: NCI 60 cell line screen, Ovarian; format: cell-based, human
[7] = test system: SNB-75; assay: NCI 60 cell line screen, CNS; format: cell-based, human
[8] = test system: A498; assay: NCI 60 cell line screen, Renal; format: cell-based, human
[9] = test system: OVCAR-8; assay: NCI 60 cell line screen, Ovarian; format: cell-based, human
[10] = test system: A549/A TCC; assay: NCI 60 cell line screen, NSCLung; format: cell-based, human
[11] = test system: KM12; assay: NCI 60 cell line screen, Colon; format: cell-based, human
[12] = test system: NCI/ADR-RES; assay: NCI 60 cell line screen, Ovarian; format: cell-based, human
[13] = test system: EKVX; assay: NCI 60 cell line screen, NSCLung; format: cell-based, human
[14] = test system: HCC-2998; assay: NCI 60 cell line screen, Colon; format: cell-based, human
[15] = test system: SK-MEL-28; assay: NCI 60 cell line screen, Melanoma; format: cell-based, human
[16] = test system: DU-145; assay: NCI 60 cell line screen, Prostate; format: cell-based, human
[17] = test system: UACC-257; assay: NCI 60 cell line screen, Melanoma; format: cell-based, human
[18] = test system: OVCAR-3; assay: NCI 60 cell line screen, Ovarian; format: cell-based, human
[19] = test system: SK-OV-3; assay: NCI 60 cell line screen, Ovarian; format: cell-based, human
[20] = test system: NCI-H522; assay: NCI 60 cell line screen, NSCLung; format: cell-based, human
[21] = test system: MCF-7 human breast cancer cells; assay: AlamarBlue cell viability assay; format: cell-based; conditions: Homo sapiens, MCF7, 72 h
Procedure: The antiproliferative potential of the synthesised 3-fluoro β-lactams 26–35 and 3,3-difluoro β-lactams 36–45 was evaluated in MCF-7 human breast cancer cells using the AlamarBlue assay, with CA-4 as reference compound (Figure 3). […] The results for the preliminary in vitro antiproliferative screen for 3-fluoro β-lactam compounds (26–29), which contain different substituents at the para position in the B ring, are presented in Figure 3A.
Cells were seeded at a density of 5 × 10^3 cells/well (MCF-7 and MDA-MB-231) and 1 × 10^4 cells/well (HEK-293T) in 96-well plates (200 μL per well). After 24 h, cells were then treated with medium alone, with vehicle (1% ethanol (v/v)) or with CA-4 or β-lactam compounds at 1 μM and 10 μM concentrations. […] Cell proliferation for MCF-7 cells was analysed with the AlamarBlue assay (Invitrogen Corp.) as previously described by us. After 72 h, AlamarBlue (10% (v/v)) was added to each well, and plates were incubated for 3–5 h at 37 °C in the dark. Fluorescence results were obtained with a 96-well fluorimeter with excitation at 530 nm and emission at 590 nm with results recorded as percentage viability relative to vehicle control (100%). Dose–response curves were obtained and IC50 values (concentration of drug resulting in 50% reduction in cell survival) were calculated using Prism (GraphPad Software, Inc., La Jolla, CA, USA).
Figure 3 Preliminary cell viability data for 3-fluoro and 3,3-difluoro β-lactam compounds. (A) 3-Fluoro β-lactam compounds containing different para-substituent ring B 26–29; 3-fluoro β-lactam compounds containing different meta-substituent ring B 30, 32–35; (B) 3-difluoro β-lactam compounds containing different para-substituent ring B 36–39; 3-difluoro β-lactam compounds containing different meta-substituent ring B 40, 42–45 in MCF-7 breast cancer cells. Cell proliferation of MCF-7 cells was determined with an AlamarBlue assay (seeding density […] for 96-well plates). Compound concentrations of either 10 μM or 1 μM for 72 h were used to treat the cells with control wells containing vehicle ethanol (1% v/v) and CA-4 (10 μM and 1 μM). The mean value for three experiments is shown with the ± S.E.M. for three independent experiments.

[22] = test system: LOX IMVI; assay: NCI 60 cell line screen, Melanoma; format: cell-based, human
[23] = test system: MDA-MB-231/ATCC; assay: NCI 60 cell line screen, Breast; format: cell-based, human
[24] = test system: HOP-92; assay: NCI 60 cell line screen, NSCLung; format: cell-based, human
[25] = test system: M14; assay: NCI 60 cell line screen, Melanoma; format: cell-based, human; conditions: for GI50: 5-dose, 48 h
[26] = test system: NCI-H322M; assay: NCI 60 cell line screen, NSCLung; format: cell-based, human

COc1ccc(C2C(F)C(=O)N2c2cc(OC)c(OC)c(OC)c2)cc1F (centres unmarked) [Compound 33, 3-Fluoro-4-(3-fluoro-4-methoxyphenyl)-1-(3,4,5-trimethoxyphenyl)azetidin-2-one]
TGI ([1]; 5-dose, 48 h): >100000 nM
GI50 ([1]; Homo sapiens, 5-dose, 48 h): 966 nM
inhibition at 10 µM ([1]; Homo sapiens, one dose 10 µM): 45.1%
Growth % ([1]; one dose 10 µM): 54.92%
TGI ([2]; 5-dose, 48 h): 350 nM
GI50 ([2]; Homo sapiens, 5-dose, 48 h): 45.6 nM
CC50 ([2]; Homo sapiens, 5-dose, 48 h, read-out: LC50 (the source's name)): 91300 nM
inhibition at 10 µM ([2]; Homo sapiens, one dose 10 µM): 131%
Growth % ([2]; one dose 10 µM): -31.46%
inhibition at 10 µM ([3]; Homo sapiens): 67.3%
Growth % [3]: 32.67%
GI50 ([4]; 5-dose, 48 h): 38.3 nM
TGI ([4]; 5-dose, 48 h): >100000 nM
GI50 ([4]; Homo sapiens, K562, 48 h, 5-dose, 48 h): 38 nM
inhibition at 10 µM ([4]; Homo sapiens, K562, one dose 10 µM): 90.5%
Growth % ([4]; one dose 10 µM): 9.45%
TGI ([5]; 5-dose, 48 h): >100000 nM
GI50 ([5]; Homo sapiens, 5-dose, 48 h): 295 nM
inhibition at 10 µM ([5]; Homo sapiens, one dose 10 µM): 74.5%
Growth % ([5]; one dose 10 µM): 25.54%
TGI ([6]; 5-dose, 48 h): >100000 nM
GI50 ([6]; Homo sapiens, 5-dose, 48 h): 423 nM
inhibition at 10 µM ([6]; Homo sapiens, one dose 10 µM): 56.4%
Growth % ([6]; one dose 10 µM): 43.57%
TGI ([7]; 5-dose, 48 h): >100000 nM
GI50 ([7]; Homo sapiens, 5-dose, 48 h): > 100000 nM
inhibition at 10 µM ([7]; Homo sapiens, one dose 10 µM): 49.1%
Growth % ([7]; one dose 10 µM): 50.89%
TGI ([8]; 5-dose, 48 h): 8080 nM
GI50 ([8]; Homo sapiens, 5-dose, 48 h): 847 nM
inhibition at 10 µM ([8]; Homo sapiens, one dose 10 µM): 106%
Growth % ([8]; one dose 10 µM): -5.5%
TGI ([9]; 5-dose, 48 h): >100000 nM
GI50 ([9]; Homo sapiens, 5-dose, 48 h): 368 nM
inhibition at 10 µM ([9]; Homo sapiens, one dose 10 µM): 86.3%
Growth % ([9]; one dose 10 µM): 13.71%
TGI ([10]; 5-dose, 48 h): >100000 nM
GI50 ([10]; Homo sapiens, 5-dose, 48 h): 394 nM
inhibition at 10 µM ([10]; Homo sapiens, one dose 10 µM): 84.7%
Growth % ([10]; one dose 10 µM): 15.33%
TGI ([11]; 5-dose, 48 h): >100000 nM
GI50 ([11]; Homo sapiens, 5-dose, 48 h): 59.6 nM
inhibition at 10 µM ([11]; Homo sapiens, one dose 10 µM): 89.3%
Growth % ([11]; one dose 10 µM): 10.73%
GI50 ([12]; 5-dose, 48 h): 42.4 nM
TGI ([12]; 5-dose, 48 h): >100000 nM
GI50 ([12]; Homo sapiens, 48 h, 5-dose): 42 nM
inhibition at 10 µM ([12]; Homo sapiens, one dose 10 µM): 91.6%
Growth % ([12]; one dose 10 µM): 8.4%
TGI ([13]; 5-dose, 48 h): >100000 nM
GI50 ([13]; Homo sapiens, 5-dose, 48 h): 203 nM
inhibition at 10 µM ([13]; Homo sapiens, one dose 10 µM): 27.8%
Growth % ([13]; one dose 10 µM): 72.16%
TGI ([14]; 5-dose, 48 h): >100000 nM
GI50 ([14]; Homo sapiens, 5-dose, 48 h): 406 nM
inhibition at 10 µM ([14]; Homo sapiens, one dose 10 µM): 67.1%
Growth % ([14]; one dose 10 µM): 32.93%
TGI ([15]; 5-dose, 48 h): >100000 nM
GI50 ([15]; Homo sapiens, 5-dose, 48 h): 15800 nM
inhibition at 10 µM ([15]; Homo sapiens, one dose 10 µM): 42.3%
Growth % ([15]; one dose 10 µM): 57.74%
TGI ([16]; 5-dose, 48 h): >100000 nM
GI50 ([16]; Homo sapiens, 5-dose, 48 h): 269 nM
inhibition at 10 µM ([16]; Homo sapiens, one dose 10 µM): 90.5%
Growth % ([16]; one dose 10 µM): 9.46%
TGI ([17]; 5-dose, 48 h): >100000 nM
GI50 ([17]; Homo sapiens, 5-dose, 48 h): > 100000 nM
inhibition at 10 µM ([17]; Homo sapiens, one dose 10 µM): 61.3%
Growth % ([17]; one dose 10 µM): 38.74%
TGI ([18]; 5-dose, 48 h): 492 nM
GI50 ([18]; Homo sapiens, 5-dose, 48 h): 46.5 nM
inhibition at 10 µM ([18]; Homo sapiens, one dose 10 µM): 104%
Growth % ([18]; one dose 10 µM): -4.18%
TGI ([19]; 5-dose, 48 h): >100000 nM
GI50 ([19]; Homo sapiens, 5-dose, 48 h): 3450 nM
inhibition at 10 µM ([19]; Homo sapiens, one dose 10 µM): 66.6%
Growth % ([19]; one dose 10 µM): 33.36%
GI50 ([20]; 5-dose, 48 h): 38.3 nM
TGI ([20]; 5-dose, 48 h): >100000 nM
GI50 ([20]; Homo sapiens, NCI-H522, 48 h, 5-dose, 48 h): 38 nM
inhibition at 10 µM ([20]; Homo sapiens, one dose 10 µM): 108%
Growth % ([20]; one dose 10 µM): -8.46%
viability at 1 µM ([21]; MCF-7, 1 μM, 72 h, read-out: viable cells remaining): 37%
IC50 ([21]; MCF-7, 72 h): 95 nM
TGI ([22]; 5-dose, 48 h): >100000 nM
GI50 ([22]; Homo sapiens, 5-dose, 48 h): 90.4 nM
inhibition at 10 µM ([22]; Homo sapiens, one dose 10 µM): 76%
Growth % ([22]; one dose 10 µM): 23.98%
TGI ([23]; 5-dose, 48 h): >100000 nM
GI50 ([23]; Homo sapiens, 5-dose, 48 h): 355 nM
inhibition at 10 µM ([23]; Homo sapiens, one dose 10 µM): 80.3%
Growth % ([23]; one dose 10 µM): 19.65%
TGI ([24]; 5-dose, 48 h): 63900 nM
GI50 ([24]; Homo sapiens, 5-dose, 48 h): 266 nM
inhibition at 10 µM ([24]; Homo sapiens, one dose 10 µM): 67.7%
Growth % ([24]; one dose 10 µM): 32.28%
GI50 [25]: 25.4 nM
GI50 ([25]; Homo sapiens, M14, 48 h): 25 nM
inhibition at 10 µM ([25]; Homo sapiens, one dose 10 µM): 98.1%
Growth % ([25]; one dose 10 µM): 1.91%
TGI ([26]; 5-dose, 48 h): >100000 nM
GI50 ([26]; Homo sapiens, 5-dose, 48 h): 1630 nM
inhibition at 10 µM ([26]; Homo sapiens, one dose 10 µM): 53.5%
Growth % ([26]; one dose 10 µM): 46.45%
